Test results reported in patent publication US12319675B2 (Artax Biopharma Inc., priority 2018, dated 2025).

Legend:
[1] = Microsomal stability assay, mouse; assay type: in vitro ADME; conditions: mouse microsomes, read-out: Microsomal Stability (T1/2 min) Mouse
Method: (§1) Microsomal stability assays were performed using mouse, rat, and human […] according to methods well-known in the art. Microsomal stability results are shown in Table 2 for selected compounds of the invention. The compound numbers correspond to the compound numbers in Table 1. […] “N/A” indicates not assayed.

[2] = Microsomal stability assay, rat; assay type: in vitro ADME; conditions: rat microsomes, read-out: Microsomal Stability (T1/2 min) Rat
Method: as §1

[3] = Microsomal stability assay, human; assay type: in vitro ADME; conditions: human microsomes, read-out: Microsomal Stability (T1/2 min) Human
Method: as §1

[4] = tested on: CD3 mediated phosphorylation of ZAP70 in Jurkat cells; assay: CD3 mediated phosphorylation of ZAP70 in Jurkat cells (HTRF); assay type: cell-based; conditions: Homo sapiens, Jurkat cells stimulated with 20 μg/mL anti-CD3 antibody; for Emax: maximum inhibition, read-out: pZAP70 Inhibition - Maximum Percent Inhibition (% Inhibition); for IC50: read-out: pZAP70 Inhibition IC50
Method: Inhibition of CD3 mediated phosphorylation of ZAP70 in Jurkat cells was measured by a cellular based Homogeneous Time-Resolved Fluorescence (HTRF) assay utilizing a Total ZAP-70 HTRF kit.
Briefly, Jurkat cells (˜1.3×10^6 cells/mL) were harvested on the day of experimentation. Cells were washed with PBS and resuspended in Assay Buffer (RPMI 1640 media plus 10% FBS) and counted.
Jurkat cells were seeded in Assay media at a total volume of 4 μL/well (40K cells/well) in a 384-low volume white flat bottom plate. The cells were then incubated at 37° C./5% CO2 for 30 minutes. The cells were then treated in duplicate with test compounds (3×) and reference compounds (3×) in a total volume of 4 μL, respectively. A compound dilution scheme is exemplified in FIG. 1.
The plate was then transferred to an incubator maintained at 37° C./5% CO2 for 2 minutes. Following incubation, cells were stimulated with 20 μg/mL of anti-CD3 antibody (1 mg/mL stock) and assay media was used to bring the total well volume 4 μL/well. The plate was then transferred to the incubator maintained at 37° C./5% CO2 for 2.5 minutes. Following incubation, 4 μL of lysis buffer (4×) provided in the kit was added to each well. The plate was then incubated at RT for 1 hour with gentle shaking. Following incubation, 4 μL of detection mix was added to each well and the plate was sealed with a plate sealer and left overnight at RT in the dark.
The Envision reader was set-up for Eu^3+ cryptate and fluorescence emission was read at two different wavelengths (620 nm and 665 nm). • Excitation filter: UV2(TRF) 320 nm • Emission filter: 665 nm • 2nd Emission filter: Europium 615 nm • Measurement height (mm): 6.5 • Excitation light (%): 100 • Delay (μs): 50 • Window time (μs): 400 • Time between flashes (μs): 2000 • Number of flashes: 100 • Number of flashes for 2nd detector: 100
The data is represented by the signal form the two wavelengths:
The ratio of the signal is calculated for each individual well:
The data was plotted using Graph Pad Prism. The significance between untreated vs. treated groups was assessed by One-way ANOVA and Bonferroni posttest comparing all columns in the graph.
ZAP70 IC50 results are shown in Table 6 for select compounds of the invention. The compound numbers correspond to the compound numbers in Table 1. […] “ND” indicates not determined.
ZAP70 percent maximum inhibition results are shown in Table 7 for select compounds of the invention. The compound numbers correspond to the compound numbers in Table 1.

**Q.** With `O=C(C1=C(c2ccc(F)cc2)c2cc(OC(F)(F)F)ccc2OC1)N1CCCC1` [Compound I-7] as the compound, how does the half-life [1] read?
**A.** < 10 min

**Q.** And the half-life [2]?
**A.** < 10 min

**Q.** What about the half-life [3] of the same compound?
**A.** 10 to 30 min

**Q.** What does the source list for `CN1CCN(CC2=C(c3ccc(F)cc3)c3cc(OC(F)(F)F)ccc3OC2)CC1` [Compound I-11, 1-((4-(4-fluorophenyl)-6-(trifluoromethoxy)-2H-chromen-3-yl)methyl)-4-methylpiperazine]?
**A.** half-life [1]: > 30 min; half-life [2]: > 30 min; half-life [3]: > 30 min; Emax [4]: ≤ 30%; IC50 [4]: 1 to 10 nM

**Q.** Which results are given for `CN1CCN(C(=O)C2=C(c3ccc(F)cc3)c3cc(OC4CC4)ccc3OC2)CC1` [Compound I-27]?
**A.** half-life [1]: < 10 min; half-life [2]: < 10 min; half-life [3]: < 10 min; Emax [4]: ≤ 30%; IC50 [4]: > 50 nM

**Q.** With `Fc1ccc(C2=C(CN3CCCC3)COc3ccc(OCCc4nnn[nH]4)cc32)cc1` [Compound I-34, 5-(2-((4-(4-fluorophenyl)-3-(pyrrolidin-1-ylmethyl)-2H-chromen-6-yl)oxy)ethyl)-1H-tetrazole] as the compound, how does the half-life [1] read?
**A.** > 30 min

**Q.** And the half-life [2]?
**A.** > 30 min

**Q.** What about the half-life [3] of the same compound?
**A.** > 30 min

**Q.** And the Emax [4]?
**A.** 30 to 40%

**Q.** And the IC50 [4]?
**A.** < 1 nM

**Q.** What does the source list for `CC(C)(O)CCOc1ccc2c(c1)C(c1ccc(F)cc1)=C(CN1CCCC1)CO2` [Compound I-35, 4-((4-(4-fluorophenyl)-3-(pyrrolidin-1-ylmethyl)-2H-chromen-6-yl)oxy)-2-methylbutan-2-ol]?
**A.** half-life [1]: 10 to 30 min; half-life [2]: < 10 min; half-life [3]: > 30 min; Emax [4]: ≤ 30%; IC50 [4]: 1 to 10 nM

**Q.** Which results are given for `N/C(CCOc1ccc2c(c1)C(c1ccc(F)cc1)=C(CN1CCCC1)CO2)=N\O` [Compound I-36, 3-((4-(4-fluorophenyl)-3-(pyrrolidin-1-ylmethyl)-2H-chromen-6-yl)oxy)-N-hydroxypropanimidamide]?
**A.** half-life [1]: 10 to 30 min; half-life [2]: 10 to 30 min; half-life [3]: > 30 min; Emax [4]: 40 to 50%; IC50 [4]: < 1 nM

**Q.** Which results are given for `O=c1[nH]c(CCOc2ccc3c(c2)C(c2ccc(F)cc2)=C(CN2CCCC2)CO3)no1` [Compound I-37, 3-(2-((4-(4-fluorophenyl)-3-(pyrrolidin-1-ylmethyl)-2H-chromen-6-yl)oxy)ethyl)-1,2,4-oxadiazol-5(2H)-one]?
**A.** half-life [1]: > 30 min; half-life [2]: 10 to 30 min; half-life [3]: > 30 min; Emax [4]: 30 to 40%; IC50 [4]: 1 to 10 nM

**Q.** Which results are given for `Fc1ccc(C2=C(CN3CCCC3)COc3ccc(OCCN4CCCCC4)cc32)cc1` [Compound I-39, 1-(2-((4-(4-fluorophenyl)-3-(pyrrolidin-1-ylmethyl)-2H-chromen-6-yl)oxy)ethyl)piperidine]?
**A.** half-life [1]: > 30 min; half-life [2]: > 30 min; half-life [3]: > 30 min; Emax [4]: ≤ 30%; IC50 [4]: 1 to 10 nM

**Q.** For `O=C(C1=C(c2ccc(F)cc2)c2cc(OCCN3CCCCC3)ccc2OC1)N1CCCC1` [Compound I-41], which half-life [1] is on record?
**A.** > 30 min

**Q.** What about the half-life [2] of the same compound?
**A.** > 30 min

**Q.** And the half-life [3]?
**A.** < 10 min

**Q.** What about the Emax [4] of the same compound?
**A.** 30 to 40%

**Q.** What about the IC50 [4] of the same compound?
**A.** 1 to 10 nM

**Q.** Which results are given for `CC(C)(O)CCOc1ccc2c(c1)C(c1ccc(F)cc1)=C(C(=O)N1CCCC1)CO2` [Compound I-42, (4-(4-fluorophenyl)-6-(3-hydroxy-3-methylbutoxy)-2H-chromen-3-yl)(pyrrolidin-1-yl)methanone]?
**A.** half-life [1]: < 10 min; half-life [2]: 10 to 30 min; half-life [3]: < 10 min; Emax [4]: ≤ 30%; IC50 [4]: > 50 nM

**Q.** Which half-life [1] does the source give for `CN1CCN(CCOc2ccc3c(c2)C(c2ccc(F)cc2)=C(C(=O)N2CCCC2)CO3)CC1` [Compound I-43] here?
**A.** < 10 min

**Q.** And the half-life [2]?
**A.** > 30 min

**Q.** What about the half-life [3] of the same compound?
**A.** < 10 min

**Q.** And the Emax [4]?
**A.** 30 to 40%

**Q.** And the IC50 [4]?
**A.** 10 to 50 nM

**Q.** Which results are given for `CN1CCN(C(=O)C2=C(c3ccc(F)cc3)c3cc(F)ccc3OC2)CC1` [Compound I-58, (6-fluoro-4-(4-fluorophenyl)-2H-chromen-3-yl)(4-methylpiperazin-1-yl)methanone]?
**A.** half-life [1]: < 10 min; half-life [2]: < 10 min; half-life [3]: > 30 min; Emax [4]: 30 to 40%; IC50 [4]: > 50 nM

**Q.** With `CN1CCN(CC2=C(c3ccc(F)cc3)c3cc(F)ccc3OC2)CC1` [Compound I-59, 1-((6-fluoro-4-(4-fluorophenyl)-2H-chromen-3-yl)methyl)-4-methylpiperazine] as the compound, how does the half-life [1] read?
**A.** 10 to 30 min

**Q.** And the half-life [2]?
**A.** < 10 min

**Q.** And the half-life [3]?
**A.** > 30 min

**Q.** And the Emax [4]?
**A.** 30 to 40%

**Q.** What about the IC50 [4] of the same compound?
**A.** < 1 nM

**Q.** For `CN(C)CCNCC1=C(c2ccc(F)cc2)c2cc(F)ccc2OC1` [Compound I-61, N′-((6-fluoro-4-(4-fluorophenyl)-2H-chromen-3-yl)methyl)-N^2,N^2-dimethylethane-1,2-diamine], which half-life [1] is on record?
**A.** < 10 min

**Q.** And the half-life [2]?
**A.** < 10 min

**Q.** And the half-life [3]?
**A.** 10 to 30 min

**Q.** And the Emax [4]?
**A.** 40 to 50%

**Q.** And the IC50 [4]?
**A.** 1 to 10 nM

**Q.** Which Emax [4] does the source give for `O=C(C1=C(c2ccc(F)cc2)c2cc(F)ccc2OC1)N1CCCC1` [Compound I-62] here?
**A.** 30 to 40%

**Q.** What about the IC50 [4] of the same compound?
**A.** 1 to 10 nM

**Q.** With `Fc1ccc(C2=C(CN3CCCC3)COc3ccc(F)cc32)cc1` [Compound I-63, 1-((6-fluoro-4-(4-fluorophenyl)-2H-chromen-3-yl)methyl)pyrrolidine] as the compound, how does the half-life [1] read?
**A.** 10 to 30 min

**Q.** What about the half-life [2] of the same compound?
**A.** < 10 min

**Q.** What about the half-life [3] of the same compound?
**A.** > 30 min

**Q.** What about the Emax [4] of the same compound?
**A.** 30 to 40%

**Q.** What about the IC50 [4] of the same compound?
**A.** 1 to 10 nM

**Q.** Which Emax [4] does the source give for `CN1CCN(CC2=C(c3ccc(F)cc3)c3cc(OCCC(=O)O)ccc3OC2)CC1` [Compound I-64] here?
**A.** 30 to 40%

**Q.** And the IC50 [4]?
**A.** 1 to 10 nM

**Q.** Which results are given for `CC(C)(COc1ccc2c(c1)C(c1ccc(F)cc1)=C(CN1CCCC1)CO2)C(=O)O` [Compound I-66]?
**A.** Emax [4]: > 50%; IC50 [4]: 1 to 10 nM

**Q.** Which Emax [4] does the source give for `O=C(O)CCCOc1ccc2c(c1)C(c1ccc(F)cc1)=C(CN1CCCC1)CO2` [Compound I-67] here?
**A.** > 50%

**Q.** What about the IC50 [4] of the same compound?
**A.** 10 to 50 nM

**Q.** Which results are given for `O=C(O)CCOc1ccc2c(c1)C(c1ccc(C(F)(F)F)cc1)=C(CN1CCCC1)CO2` [Compound I-68]?
**A.** Emax [4]: > 50%; IC50 [4]: < 1 nM

**Q.** Which Emax [4] does the source give for `CN1CCN(CC2=C(c3ccc(C(F)(F)F)cc3)c3cc(OCCC(=O)O)ccc3OC2)CC1` [Compound I-69] here?
**A.** > 50%

**Q.** And the IC50 [4]?
**A.** 1 to 10 nM

**Q.** For `CN(C)CCNCC1=C(c2ccc(C(F)(F)F)cc2)c2cc(OCCC(=O)O)ccc2OC1` [Compound I-70], which Emax [4] is on record?
**A.** 40 to 50%

**Q.** And the IC50 [4]?
**A.** 1 to 10 nM

**Q.** Which results are given for `CC(C)(COc1ccc2c(c1)C(c1ccc(C(F)(F)F)cc1)=C(CN1CCOCC1)CO2)C(=O)O` [Compound I-79]?
**A.** Emax [4]: > 50%; IC50 [4]: 1 to 10 nM

**Q.** Which Emax [4] does the source give for `CC(C)(COc1ccc2c(c1)C(c1ccc(F)cc1)=C(CN1CCOCC1)CO2)C(=O)O` [Compound I-80] here?
**A.** > 50%

**Q.** What about the IC50 [4] of the same compound?
**A.** 1 to 10 nM

**Q.** What does the source list for `CC(C)(COc1ccc2c(c1)C(c1ccc(C(F)(F)F)cc1)=C(CN1CCCC1)CO2)C(=O)O` [Compound I-81]?
**A.** Emax [4]: > 50%; IC50 [4]: 1 to 10 nM
